According to US5264443A, “3-aryl oxazolidinone compounds and therapeutic use thereof” (Delalande S.A., priority 1991, dated 1993):

Tested on: 5-hydroxy tryptophan (5-HTP)
Experiment: potentialisation of 5-HTP in the rat (anti-depressive activity)
Type: in vivo
Conditions: 1 h, oral administration, 5-HTP intraperitoneally one hour after the first treatment, read-out: ED50 (dose producing generalised tremors or stereotypy in 50% of the animals)
Source text: The anti-depressive activity was shown by the test of potentialisation of 5-HTP in the rat by the method described by M. JALFRE, B. BUCHER, A. COSTON, G. MOCQUET and R. D. PORSOLT: Arch. Int. Pharmacodyn., (1982), 259, 194-221. A determination on the rat was made of that dose of the product which, orally administered, produces generalised tremors or stereotypy (drumming, head movements) in 50% of the animals (ED50) after intraperitoneal administration of 5-hydroxy tryptophan (5-HTP) one hour after the first treatment. The results obtained in the preceding test, using some compounds according to the invention, are given by way of example in the following table: […]

Structure (SMILES) | ED50 [mg/kg]
COC[C@H]1CN(c2ccc(OCC[C@@H](OCc3ccncc3)C(F)(F)F)cc2)C(=O)O1 [MD 290057, 3-[4-[4,4,4-trifluoro 3-(4-pyridylmethoxy)(R)butoxy]phenyl]5-methoxymethyl(R)2-oxazolidinone] | 0.53
COC[C@H]1CN(c2ccc(OCC[C@@H](OCc3ccc[n+]([O-])c3)C(F)(F)F)cc2)C(=O)O1 [MD 290065, 3-[4-[4,4,4-trifluoro3-(3-N-oxide-pyridylmethoxy)(R)butoxy]phenyl]5-methoxymethyl(R) 2-oxazolidinone] | 0.62
COC[C@H]1CN(c2ccc(OCC[C@@H](OCc3cccnc3)C(F)(F)F)cc2)C(=O)O1 [MD 360411 (oxalate), 3-[4-[4,4,4-trifluoro 3-(3-pyridylmethoxy)(R)butoxy]phenyl]5-methoxymethyl(R)2-oxazolidinone] | 0.4
